Laboratory results: ChEMBL document CHEMBL3638446, “Quinoxaline inhibitors of phosphoinositide-3-kinases (PI3Ks)” (2013)

Biological target: Phosphatidylinositol 4,5-bisphosphate 3-kinase catalytic subunit gamma isoform (Homo sapiens, UniProt P48736)
Assay: Biological Assay: The assay combines the scintillation proximity assay technology (SPA, Amersham) with the capacity of neomycin (a polycationic antibiotic) to bind phospholipids with high affinity and specificity. The Scintillation Proximity Assay is based on the properties of weakly emitting isotopes (such as 3H, 125I, 33P). Coating SPA beads with neomycin allows the detection of phosphorylated lipid substrates after incubation with recombinant PI3K and radioactive ATP in the same well, by capturing the radioactive phospholipids to the SPA beads through their specific binding to neomycin.

Sequence of Phosphatidylinositol 4,5-bisphosphate 3-kinase catalytic subunit gamma isoform (P48736 whole entry, canonical isoform): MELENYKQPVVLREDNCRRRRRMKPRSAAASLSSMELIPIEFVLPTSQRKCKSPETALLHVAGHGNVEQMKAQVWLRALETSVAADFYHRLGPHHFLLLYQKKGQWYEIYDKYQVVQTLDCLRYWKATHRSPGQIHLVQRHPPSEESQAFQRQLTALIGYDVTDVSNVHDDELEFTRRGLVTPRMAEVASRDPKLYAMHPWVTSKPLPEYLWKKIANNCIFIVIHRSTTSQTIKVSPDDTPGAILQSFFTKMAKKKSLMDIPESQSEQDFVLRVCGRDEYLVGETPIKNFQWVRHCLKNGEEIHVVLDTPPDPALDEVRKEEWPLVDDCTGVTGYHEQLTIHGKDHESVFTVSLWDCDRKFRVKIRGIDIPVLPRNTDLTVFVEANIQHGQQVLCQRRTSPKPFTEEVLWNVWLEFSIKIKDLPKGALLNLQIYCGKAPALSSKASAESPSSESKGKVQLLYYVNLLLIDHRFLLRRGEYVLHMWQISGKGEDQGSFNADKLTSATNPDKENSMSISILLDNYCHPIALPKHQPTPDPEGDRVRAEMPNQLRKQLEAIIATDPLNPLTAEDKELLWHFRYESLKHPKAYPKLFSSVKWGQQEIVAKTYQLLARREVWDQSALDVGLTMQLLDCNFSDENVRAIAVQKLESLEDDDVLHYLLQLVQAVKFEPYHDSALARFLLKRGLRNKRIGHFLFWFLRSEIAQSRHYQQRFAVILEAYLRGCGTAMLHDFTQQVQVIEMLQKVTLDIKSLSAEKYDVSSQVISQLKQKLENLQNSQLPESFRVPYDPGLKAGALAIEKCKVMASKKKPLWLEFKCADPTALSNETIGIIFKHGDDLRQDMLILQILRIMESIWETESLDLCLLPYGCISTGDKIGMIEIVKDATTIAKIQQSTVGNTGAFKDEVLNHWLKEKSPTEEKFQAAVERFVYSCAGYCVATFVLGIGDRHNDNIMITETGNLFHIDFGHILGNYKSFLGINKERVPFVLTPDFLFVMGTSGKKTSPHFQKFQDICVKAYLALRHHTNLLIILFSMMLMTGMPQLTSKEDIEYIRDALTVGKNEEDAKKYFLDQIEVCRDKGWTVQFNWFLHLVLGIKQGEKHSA

`COc1ccc(CC2CCOCC2)c(Nc2nc3ccccc3nc2NS(=O)(=O)c2ccc(CN(C)C)cc2)c1` gave an IC50 of 30 nM.
